Test results from patent publication US7423032B2, “Method for treating severe heart failure and medicament therefor” (Otsuka Pharmaceutical Co., Ltd., priority 2003, dated 2008).

Key:
Assay type in all cases: in vivo, human patients
[1] = Total urine output in patients treated with (A), placebo-controlled Phase IIB study; design: Total urine output: unit not given here
Procedure: (§1) To patients of severe heart failure (i.e., patient in acute heart failure or chronic heart failure in acute exacerbation, New York Heart Association Class III and IV) was administered 5-hydroxy-7-chloro-1-[2-methyl-4-(2-methylbenzoylamino)benzoyl]-2,3,4,5-tetrahydro-1H-benzazepine at a dose of 30, 60 or 90 mg/day for a period of 60 days, which period began from the duration of hospitalization to after being discharged from hospital (details thereof are shown in Table 1).
(§2) As to the statistical analysis, the data in Table 2 was analyzed by ANOVA method, and the data in Tables 3 and 4 were analyzed by ANCOVA method, and the data in Table 5 was analyzed by Log-Rank test.
(§3) When the dosages in this experiment were converted to a daily dose per 1 kg of body weight, they were 0.371±0.096 mg/kg (n=77) in the 30 mg-treated group, 0.769±0.205 mg/kg (n=83) in the 60 mg-treated group, and 1.149±0.283 mg/kg (n=76) in the 90 mg-treated group (all in mean±SD).

[2] = Mean change in body weight from baseline in patients treated with (A); design: Mean change in body weight from baseline: unit not given here
Procedure: as §1, §2, §3

[3] = Serum sodium concentration in patients of hyponatremia at baseline treated with (A); details: for Serum sodium concentration: mean ± SD
Procedure: as §1
As to the statistical analysis, the data in Table 2 was analyzed by ANOVA method, and the data in Tables 3 and 4 were analyzed by ANCOVA method, and the data in Table 5 was analyzed by Log-Rank test. […]

[4] = test system: patients of severe heart failure; test: Mortality of the patients treated with (A); details: for Mortality Event Rate (%): placebo 8.7%; for Number off Death: on therapy up to 60 days
Procedure: as §1, §2

[5] = Adverse events (urinary frequency) in patients treated with (A); details: for Urinary Frequency Event Rate (%): placebo 1.3%
Procedure: as §1
(§4) In addition, in the group treated with the lowest dose of 30 mg, the urinary frequency event rate as an adverse experience was lower (Table 6), and the discontinued rate due to adverse experiences was lower (Table 7), as compared with the data of the groups treated with higher doses.

[6] = Discontinued cases due to adverse experiences in patients treated with (A); details: for Discontinuation due to Adverse Experience Event Rate (%): placebo 15.0%
Procedure: as §1, §4

[7] = 30 mg/day oral, 78 patients randomized
[8] = 60 mg/day oral, 84 patients randomized
[9] = 90 mg/day oral, 77 patients randomized
[10] = 30 mg group compared with groups treated with higher doses

Cc1ccccc1C(=O)Nc1ccc(C(=O)N2CCCC(O)c3cc(Cl)ccc32)c(C)c1 (stereo not drawn) [(A), 5-hydroxy-7-chloro-1-[2-methyl-4-(2-methylbenzoylamino)benzoyl]-2,3,4,5-tetrahydro-1H-benzazepine]
total urine output (in words) ([1]; 30 mg-treated group): increased
Total urine output ([1]; 30 mg/day oral, Day 1, mean ± SD, n=73): 4056.16 ± 2310.23
Total urine output ([1]; 30 mg/day oral, Day 2, mean ± SD, n=67): 3905.61 ± 1942.03
Total urine output ([1]; 30 mg/day oral, Day 3, mean ± SD, n=52): 3579.04 ± 1867.86
Total urine output ([1]; 30 mg/day oral, Day 6, mean ± SD, n=33): 3146.67 ± 1618.09
Total urine output ([1]; 30 mg/day oral, Day 7, mean ± SD, n=16): 2662.81 ± 1507.51
Total urine output ([1]; 30 mg/day oral, Day 9, mean ± SD, n=5): 2908.00 ± 475.59
Total urine output ([1]; 60 mg/day oral, Day 1, mean ± SD, n=82): 4175.15 ± 2695.44
Total urine output ([1]; 60 mg/day oral, Day 2, mean ± SD, n=74): 3699.26 ± 2094.02
Total urine output ([1]; 60 mg/day oral, Day 3, mean ± SD, n=54): 3420.41 ± 1902.77
Total urine output ([1]; 60 mg/day oral, Day 6, mean ± SD, n=32): 3684.56 ± 2472.45
Total urine output ([1]; 60 mg/day oral, Day 7, mean ± SD, n=17): 4230.00 ± 1691.43
Total urine output ([1]; 60 mg/day oral, Day 9, mean ± SD, n=11): 3753.18 ± 2415.48
Total urine output ([1]; 90 mg/day oral, Day 1, mean ± SD, n=73): 4127.27 ± 2050.81
Total urine output ([1]; 90 mg/day oral, Day 2, mean ± SD, n=64): 3961.73 ± 2129.11
Total urine output ([1]; 90 mg/day oral, Day 3, mean ± SD, n=50): 4069.32 ± 2306.07
Total urine output ([1]; 90 mg/day oral, Day 6, mean ± SD, n=30): 4188.23 ± 2275.15
Total urine output ([1]; 90 mg/day oral, Day 7, mean ± SD, n=17): 3915.12 ± 2101.53
Total urine output ([1]; 90 mg/day oral, Day 9, mean ± SD, n=7): 2421.43 ± 1391.12
body weight (in words) ([2]; 30 mg-treated group): decreased
Mean change in body weight from baseline ([2]; 30 mg/day oral, Day 1, mean ± SD, n=76): −2.14 ± 2.63
Mean change in body weight from baseline ([2]; 30 mg/day oral, Day 2, mean ± SD, n=63): −3.49 ± 3.80
Mean change in body weight from baseline ([2]; 30 mg/day oral, Day 3, mean ± SD, n=49): −4.78 ± 4.14
Mean change in body weight from baseline ([2]; 30 mg/day oral, Discharge, mean ± SD, n=76): −4.37 ± 4.69
Mean change in body weight from baseline ([2]; 30 mg/day oral, Last Visit, mean ± SD, n=76): −2.42 ± 5.37
Mean change in body weight from baseline ([2]; 30 mg/day oral, outpatient Week 1, mean ± SD, n=65): −2.71 ± 4.93
Mean change in body weight from baseline ([2]; 30 mg/day oral, outpatient Week 7, mean ± SD, n=54): −2.12 ± 5.16
Mean change in body weight from baseline ([2]; 60 mg/day oral, Day 1, mean ± SD, n=76): −2.10 ± 1.80
Mean change in body weight from baseline ([2]; 60 mg/day oral, Day 2, mean ± SD, n=65): −3.03 ± 2.48
Mean change in body weight from baseline ([2]; 60 mg/day oral, Day 3, mean ± SD, n=47): −3.93 ± 3.33
Mean change in body weight from baseline ([2]; 60 mg/day oral, Discharge, mean ± SD, n=82): −4.60 ± 4.67
Mean change in body weight from baseline ([2]; 60 mg/day oral, Last Visit, mean ± SD, n=82): −3.60 ± 6.38
Mean change in body weight from baseline ([2]; 60 mg/day oral, outpatient Week 1, mean ± SD, n=59): −2.73 ± 5.45
Mean change in body weight from baseline ([2]; 60 mg/day oral, outpatient Week 7, mean ± SD, n=54): −2.87 ± 6.67
Mean change in body weight from baseline ([2]; 90 mg/day oral, Day 1, mean ± SD, n=74): −1.90 ± 2.87
Mean change in body weight from baseline ([2]; 90 mg/day oral, Day 2, mean ± SD, n=61): −2.84 ± 3.16
Mean change in body weight from baseline ([2]; 90 mg/day oral, Day 3, mean ± SD, n=45): −2.65 ± 4.22
Mean change in body weight from baseline ([2]; 90 mg/day oral, Discharge, mean ± SD, n=76): −3.75 ± 4.18
Mean change in body weight from baseline ([2]; 90 mg/day oral, Last Visit, mean ± SD, n=76): −2.39 ± 5.20
Mean change in body weight from baseline ([2]; 90 mg/day oral, outpatient Week 1, mean ± SD, n=53): −3.23 ± 4.46
Mean change in body weight from baseline ([2]; 90 mg/day oral, outpatient Week 7, mean ± SD, n=53): −2.23 ± 5.19
Serum sodium concentration ([3]; 30 mg group, Baseline, patients of hyponatremia at baseline, n=15): 132.13 ± 3.44 mEq/L
Serum sodium concentration ([3]; 30 mg/day oral, Day 1, patients of hyponatremia at baseline, n=15): 136.00 ± 3.96 mEq/L
Serum sodium concentration ([3]; 30 mg/day oral, Day 2, patients of hyponatremia at baseline, n=11): 135.09 ± 5.07 mEq/L
Serum sodium concentration ([3]; 30 mg/day oral, Day 3, patients of hyponatremia at baseline, n=8): 135.13 ± 5.38 mEq/L
Serum sodium concentration ([3]; 30 mg/day oral, Discharge, patients of hyponatremia at baseline, n=15): 136.13 ± 4.61 mEq/L
Serum sodium concentration ([3]; 30 mg/day oral, Last Visit, patients of hyponatremia at baseline, n=15): 137.00 ± 5.04 mEq/L
Serum sodium concentration ([3]; 30 mg/day oral, outpatient Week 1, patients of hyponatremia at baseline, n=12): 138.25 ± 4.22 mEq/L
Serum sodium concentration ([3]; 30 mg/day oral, outpatient Week 7, patients of hyponatremia at baseline, n=10): 137.60 ± 4.65 mEq/L
Serum sodium concentration ([3]; 60 mg group, Baseline, patients of hyponatremia at baseline, n=22): 130.86 ± 4.00 mEq/L
Serum sodium concentration ([3]; 60 mg/day oral, Day 1, patients of hyponatremia at baseline, n=22): 135.77 ± 6.16 mEq/L
Serum sodium concentration ([3]; 60 mg/day oral, Day 2, patients of hyponatremia at baseline, n=17): 137.29 ± 3.02 mEq/L
Serum sodium concentration ([3]; 60 mg/day oral, Day 3, patients of hyponatremia at baseline, n=13): 138.62 ± 4.44 mEq/L
Serum sodium concentration ([3]; 60 mg/day oral, Discharge, patients of hyponatremia at baseline, n=22): 137.18 ± 4.56 mEq/L
Serum sodium concentration ([3]; 60 mg/day oral, Last Visit, patients of hyponatremia at baseline, n=22): 136.18 ± 5.94 mEq/L
Serum sodium concentration ([3]; 60 mg/day oral, outpatient Week 1, patients of hyponatremia at baseline, n=16): 136.88 ± 5.82 mEq/L
Serum sodium concentration ([3]; 60 mg/day oral, outpatient Week 7, patients of hyponatremia at baseline, n=11): 139.36 ± 4.76 mEq/L
Serum sodium concentration ([3]; 90 mg group, Baseline, patients of hyponatremia at baseline, n=15): 133.07 ± 2.52 mEq/L
Serum sodium concentration ([3]; 90 mg/day oral, Day 1, patients of hyponatremia at baseline, n=15): 137.13 ± 4.82 mEq/L
Serum sodium concentration ([3]; 90 mg/day oral, Day 2, patients of hyponatremia at baseline, n=15): 137.00 ± 4.60 mEq/L
Serum sodium concentration ([3]; 90 mg/day oral, Day 3, patients of hyponatremia at baseline, n=11): 136.45 ± 4.59 mEq/L
Serum sodium concentration ([3]; 90 mg/day oral, Discharge, patients of hyponatremia at baseline, n=15): 137.13 ± 3.02 mEq/L
Serum sodium concentration ([3]; 90 mg/day oral, Last Visit, patients of hyponatremia at baseline, n=15): 136.60 ± 5.17 mEq/L
Serum sodium concentration ([3]; 90 mg/day oral, outpatient Week 1, patients of hyponatremia at baseline, n=8): 136.13 ± 3.64 mEq/L
Serum sodium concentration ([3]; 90 mg/day oral, outpatient Week 7, patients of hyponatremia at baseline, n=6): 138.00 ± 5.73 mEq/L
serum sodium concentration (in words) ([3]; patients of hyponatremia at baseline (less than 136 mEq/L)): increase of serum sodium concentration
mortality rate vs control group (in words) ([4]; 30 mg-treated group, entire period, Log-Rank test): significantly lower
Mortality Event Rate (%) [4, 7]: 3.8%
Number off Death [4, 7]: 3
Mortality Event Rate (%) [4, 8]: 9.5%
Number off Death [4, 8]: 8
Mortality Event Rate (%) [4, 9]: 2.5%
Number off Death [4, 9]: 2
urinary frequency event rate as an adverse experience (in words) [5, 10]: lower
Adverse Event Urinary Frequency (number of patients) ([5]; 30 mg/day oral, 78 patients): 1
Urinary Frequency Event Rate (%) ([5]; 30 mg/day oral, 78 patients): 1.3%
Adverse Event Urinary Frequency (number of patients) ([5]; 60 mg/day oral, 84 patients): 3
Urinary Frequency Event Rate (%) ([5]; 60 mg/day oral, 84 patients): 3.6%
Adverse Event Urinary Frequency (number of patients) ([5]; 90 mg/day oral, 76 patients): 4
Urinary Frequency Event Rate (%) ([5]; 90 mg/day oral, 76 patients): 5.3%
discontinued rate due to adverse experiences (in words) [6, 10]: lower
Discontinued cases due to Adverse Experience (number) [6, 7]: 14
Discontinuation due to Adverse Experience Event Rate (%) [6, 7]: 17.9%
Discontinued cases due to Adverse Experience (number) [6, 8]: 25
Discontinuation due to Adverse Experience Event Rate (%) [6, 8]: 29.8%
Discontinued cases due to Adverse Experience (number) [6, 9]: 17
Discontinuation due to Adverse Experience Event Rate (%) [6, 9]: 22.1%
